One assay addresses NDM-1 (Klebsiella pneumoniae, UniProt C7C422). In words: Inhibition constant (Ki) measurement test, NDM-1. The format is biochemical. How it is done:
(§1) The inhibition constant (Ki) measurement test was performed in the following manner. The inhibition constant (Ki) was measured using various metallo-β-lactamases (final concentration: 10 nM). The imipenem decomposition activity (Δabs/min) at each point under the conditions of absorbance: 298 nm and temperature: 30° C. was measured by varying the concentration of imipenem as a substrate and the concentrations of test substances (compounds A to E) as inhibitors. Each measured value was fitted to the Lineweaver-Burk plot equation to calculate Ki.
(§2) The test was performed in the same manner as in Test Example 6, except that X2a, X2b, X2c, X2d, X3a, and X4 were used as test substances (inhibitors).

Assay [1] has as its system bacteria into which a plasmid encoding VIM-2 was introduced (pBCSK (+)/E. coli DH5a). Put plainly: Drug susceptibility test (MIC), VIM-2-producing strain. The format is cell-based. The following applies: MIC of ceftazidime with inhibitor 10 μg/mL. Here is the method: (§3) Plates for drug susceptibility test measurement were prepared by using 96- or 384-well U-bottom plates, a Mueller-Hinton liquid medium, and antimicrobial drugs (ceftazidime (CAZ), imipenem (IPM), meropenem (MPM), doripenem (DPM), and biapenem (BPM)). A 1/2 antimicrobial drug dilution series was made up to well 11 of, for example, a 96-well U-bottom plate so that the leftmost well 1 of row A contained an antimicrobial drug at the maximum concentration, the antimicrobial drug concentration in well 2 to the right of well 1 was 1/2 of the maximum concentration, the antimicrobial drug concentration in well 3 to the right of well 2 was 1/4 of the maximum concentration, and so on. […] An antimicrobial drug dilution series was made in each of rows B and C in the same manner as in row A. Further, 10 μg/mL and 50 μg/mL of a test substance (compound A) were added to row B and row C, respectively (FIG. 1).
(§4) Bacteria into which a plasmid encoding a class B β-lactamase (metallo-β-lactamase (MBL): NDM-1, or VIM-2) was introduced (pBCSK (+)/E. coli DH5a) were used as test bacteria. The test bacteria were adjusted to 10^8 cfu/mL with a Mueller-Hinton medium. Further, the test bacteria were diluted 10-fold with a Mueller-Hinton medium (10^7 cfu/mL). 5 μl of the test bacteria was collected and inoculated into the plates for drug susceptibility test measurement. After overnight culture at 35° C., the growth of the test bacteria was visually checked. The concentration of the antimicrobial drug in a well containing the lowest concentration of the antimicrobial drug among the wells in which no growth of the test bacteria was confirmed was defined as the minimal inhibitory concentration value (FIG. 1).
(§5) The drug susceptibility test was performed in the same manner as in Test Example 1, except that compounds A to C and E to I were used as test substances.
(§6) The test was performed in the same manner as in Test Example 1, except that X2a, X2b, X2c, X2d, X3a, and X4 were used as test substances (inhibitors). The inhibitor concentration was 10 μg/mL.

Assay [2] deals with β-lactamase-producing bacteria. In words: Drug susceptibility tests, summary statements over all strains. The format is cell-based, E. coli. As to conditions: addition of the compound. How it is done: as §3, §4
Another assay has as its target IMP-1 (Serratia marcescens, UniProt P52699). Put plainly: Inhibition constant (Ki) measurement test, IMP-1. The format is biochemical. Here is the method: as §1, §2
Assay [3] deals with bacteria into which a plasmid encoding NDM-1 was introduced (pBCSK (+)/E. coli DH5a). Put plainly: Drug susceptibility test (MIC), NDM-1-producing strain. The format is cell-based. The following applies: MIC of meropenem with inhibitor 10 μg/mL. How it is done:
as §3, §4, §5, §6

Assay [4] concerns bacteria into which a plasmid encoding IMP-1 was introduced (pBCSK (+)/E. coli DH5a). Put plainly: Drug susceptibility test (MIC), IMP-1-producing strain. The format is cell-based. The following applies: MIC of meropenem with inhibitor 10 μg/mL.
The next assay has as its system β-lactamase. In words: Inhibition constant (Ki) tests, summary statements over all enzymes. The format is biochemical. How it is done: as §1, §2
For another assay, the target named is VIM-2 (Escherichia coli, UniProt Q5U7L7). In words: Inhibition constant (Ki) measurement test, VIM-2. The format is biochemical. Here is the method: as §1, §2
Setting [5] is: Test Example 11, same manner as Test Example 6, read-out: Enzymatic Inhibition Effect Ki NDM-1.
Setting [6] is: Test Example 11, same manner as Test Example 6, read-out: Enzymatic Inhibition Effect Ki IMP-1.
Where [7] appears, read: Test Example 11, same manner as Test Example 6, read-out: Enzymatic Inhibition Effect Ki VIM-2.
Where [8] appears, read: imipenem substrate, enzyme 10 nM, 30° C., Lineweaver-Burk, read-out: Inhibition constant Ki NDM-1.
Where [9] appears, read: imipenem substrate, enzyme 10 nM, 30° C., Lineweaver-Burk, read-out: Inhibition constant Ki IMP-1.
Setting [10] is: imipenem substrate, enzyme 10 nM, 30° C., Lineweaver-Burk, read-out: Inhibition constant Ki VIM-2.

Read-outs that look alike come from different tables or passages of the source.

IMP-1, sequence (P52699 19-246, looked up, species assumed): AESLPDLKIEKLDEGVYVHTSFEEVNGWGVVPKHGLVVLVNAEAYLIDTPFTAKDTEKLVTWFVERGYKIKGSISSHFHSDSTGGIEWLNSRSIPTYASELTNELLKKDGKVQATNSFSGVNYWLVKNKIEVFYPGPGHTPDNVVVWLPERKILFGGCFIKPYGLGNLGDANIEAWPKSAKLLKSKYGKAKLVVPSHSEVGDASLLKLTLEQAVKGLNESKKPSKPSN
NDM-1, sequence (C7C422 29-270, looked up, species assumed): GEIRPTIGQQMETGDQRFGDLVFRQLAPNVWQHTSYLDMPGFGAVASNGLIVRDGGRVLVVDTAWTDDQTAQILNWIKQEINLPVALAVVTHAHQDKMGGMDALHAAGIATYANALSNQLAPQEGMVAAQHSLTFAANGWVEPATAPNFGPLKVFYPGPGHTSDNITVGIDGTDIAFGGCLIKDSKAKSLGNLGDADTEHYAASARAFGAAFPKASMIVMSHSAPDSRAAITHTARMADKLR

In general, Ki refers to a dissociation constant, usually derived from enzyme kinetics or from competition with a known ligand. Regarding `CCc1c(C(=O)O)c(S(N)(=O)=O)c(C(C)C)n1C` [Compound X4], the values for the Ki at NDM-1 (setting [5]), at IMP-1 (setting [6]) and on VIM-2 (setting [7]) were 4.3 µM, 0.9 µM and 0.017 µM, respectively. In assay [1], the “Ceftazidime MIC VIM-2-producing strain” value was determined as 1 mg/L. For the same molecule, the “effect on MICs of the antimicrobial drugs (statement on Tables 1, 2, 4)” value (“effect on MICs” below) in assay [2] is “decreases the MICs”. Also, in assay [3], the “Meropenem MIC NDM-1-producing strain” value was found to be 0.5 mg/L. Further, in assay [4], the “Meropenem MIC IMP1-producing strain” value was found to be 0.031 mg/L. Moreover, the “β-lactamase activity inhibition (statement on Tables 2, 5)” value (“β-lactamase activity inhibition” below) in the assay on β-lactamase is recorded as “inhibits β-lactamase activity”.

For the molecule `NS(=O)(=O)c1c(C2CCCC2)oc(C2CCCC2)c1C(=O)O` [Compound H], the Ki is 0.18 µM at NDM-1 (setting [8]), 1.27 µM on IMP-1 (setting [9]) and 0.76 µM at VIM-2 (setting [10]).

For the molecule `CCCc1oc(CCC)c(S(N)(=O)=O)c1C(=O)O` [Compound G], the Ki came out at 0.29 µM on NDM-1 (setting [8]), 0.38 µM at IMP-1 (setting [9]) and 0.46 µM on VIM-2 (setting [10]).

With `CCc1oc(CC)c(S(N)(=O)=O)c1C(=O)O` [Compound F], the results for the Ki at NDM-1 (setting [8]), on IMP-1 (setting [9]) and at VIM-2 (setting [10]) were 0.92 µM, 0.3 µM and 1.01 µM, respectively.

As to `CCc1c(C(=O)O)c(S(N)(=O)=O)c(CC)n1N` [Compound X3a], the Ki is 22.1 µM at NDM-1 (setting [5]), 21.4 µM on IMP-1 (setting [6]) and 1.97 µM at VIM-2 (setting [7]). Also, in assay [1], the “Ceftazidime MIC VIM-2-producing strain” value worked out at 4 mg/L. Also, the “effect on MICs” value in assay [2] is “decreases the MICs”. In addition, the “Meropenem MIC NDM-1-producing strain” value in assay [3] amounted to 0.5 mg/L. For the same molecule, the “Meropenem MIC IMP1-producing strain” value in assay [4] was determined as 0.031 mg/L. Further, the “β-lactamase activity inhibition” value with β-lactamase is listed as “inhibits β-lactamase activity”.

For `Cc1c(C(=O)O)c(S(N)(=O)=O)c(C)n1C` [Compound E], the Ki on NDM-1 (setting [8]) worked out at 9.08 µM; at IMP-1 (setting [9]), 1.23 µM; on VIM-2 (setting [10]), 0.42 µM.

For the molecule `CCc1c(C(=O)O)c(S(N)(=O)=O)c(C)n1C` [Compound X2a], the results for the Ki on NDM-1 (setting [5]), at IMP-1 (setting [6]) and on VIM-2 (setting [7]) were 1.83 µM, 1.77 µM and 0.023 µM, respectively. Besides, in assay [1], the “Ceftazidime MIC VIM-2-producing strain” value was determined as 1 mg/L. Also, the “effect on MICs” value in assay [2] was “decreases the MICs”. The “Meropenem MIC NDM-1-producing strain” value in assay [3] was determined as 0.0625 mg/L. Moreover, in assay [4], the “Meropenem MIC IMP1-producing strain” value amounted to 0.031 mg/L. Moreover, in the assay with β-lactamase, the “β-lactamase activity inhibition” value is reported as “inhibits β-lactamase activity”.

With `CCc1c(C(=O)O)c(S(N)(=O)=O)c(-c2ccccc2)n1C` [Compound X2c], the results for the Ki on NDM-1 (setting [5]), at IMP-1 (setting [6]) and at VIM-2 (setting [7]) were 1.5 µM, 1.24 µM and 0.019 µM, respectively. Moreover, the “Ceftazidime MIC VIM-2-producing strain” value in assay [1] turned out to be 1 mg/L. Also, in assay [2], the “effect on MICs” value is given as “decreases the MICs”. For the same molecule, the “Meropenem MIC NDM-1-producing strain” value in assay [3] was found to be 0.5 mg/L. The “Meropenem MIC IMP1-producing strain” value in assay [4] came out at 0.031 mg/L. Besides, the “β-lactamase activity inhibition” value in the assay on β-lactamase is “inhibits β-lactamase activity”.

With `NS(=O)(=O)c1sc(Cl)cc1C(=O)O` [C], the Ki on NDM-1 (setting [8]) is 19.3 µM; on IMP-1 (setting [9]) it was 19.1 µM; on VIM-2 (setting [10]), 2.29 µM.

With `NS(=O)(=O)c1sccc1C(=O)O` [B], the values for the Ki at NDM-1 (setting [8]), on IMP-1 (setting [9]) and at VIM-2 (setting [10]) were 7.68 µM, 34.1 µM and 15.5 µM, respectively.

Take `Cc1c(C(=O)O)c(S(N)(=O)=O)c(C)n1-c1ccccc1` [Compound D]: the Ki turned out to be 10.2 µM at NDM-1 (setting [8]), 7.51 µM at IMP-1 (setting [9]) and 20.8 µM at VIM-2 (setting [10]).

Regarding `CCc1c(S(N)(=O)=O)c(C(=O)O)c(C)n1C` [Compound X2b], the Ki at NDM-1 (setting [5]) stood at 1.73 µM; on IMP-1 (setting [6]) it was 0.98 µM; on VIM-2 (setting [7]) it was 0.1 µM. Also, in assay [1], the “Ceftazidime MIC VIM-2-producing strain” value stood at 1 mg/L. Moreover, the “effect on MICs” value in assay [2] was “decreases the MICs”. Moreover, the “Meropenem MIC NDM-1-producing strain” value in assay [3] was 0.0625 mg/L. The “Meropenem MIC IMP1-producing strain” value in assay [4] turned out to be 0.031 mg/L. Moreover, the “β-lactamase activity inhibition” value with β-lactamase is given as “inhibits β-lactamase activity”.

The record behind these values is patent US11497731B2, “β-lactamase inhibitor” (NATIONAL UNIVERSITY CORPORATION TOKAI NATIONAL HIGHER …, priority 2018, dated 2022).
